# Key:
# conscious rats = experiment: Acute infusion of L-NAME during chronic infusion of purified porcine RLX; format: in vivo, rat; details: RLX 4 μg/hour s.c. day 5
# Protocol: At least 7 days after the implantation of vascular and bladder catheters, osmotic minipumps containing either porcine RLX (4 μg/hour) or vehicle (Ringer's solution) were implanted in intact, female rats (n=7 and 6 rats, respectively). Renal function and MAP were measured on day 5 of relaxin infusion (three 30-minute urine and midpoint blood collections). Next, an infusion of L-NAME (2 μg/minute, a substrate competitive inhibitor of NO synthase) was administered intravenously (i.v.) by infusion pump (Model 200, KD Scientific, Boston, Mass.). Four 1-hour urine collections with midpoint blood samples were collected for the assessment of GFR, ERPF, and ERVR during the L-NAME administration. Identical procedures were performed on additional animals chronically administered porcine RLX (n=5) or vehicle (n=5), except that ANG II (3 ng/minute) was infused rather than L-NAME. Finally, another four, age-matched control rats were administered Ringer's solution instead of either L-NAME or ANG II on day 5 of porcine RLX infusion.
# MAP, GFR, ERPF, and ERVR were measured at time zero (baseline), and at 60, 120, 180, and 240 minutes after administering L-NAME and either RLX or vehicle alone. Values represent the mean±SEM. L-NAME (Nω-nitro-L-arginine methyl ester) was infused at 2 μg/minute intravenously, and relaxin was administered at 4 μg/hour by osmotic minipump subcutaneously. There were 7 and 6 rats, respectively, in the RLX and vehicle groups. An asterisk denotes p<0.05; the symbol H denotes p<0.05 for RLX vs. vehicle.
# human subjects = experiment: Clinical trial: blood pressure and creatinine clearance; format: in vivo
# Protocol: A clinical trial was conducted with human subjects, age 18 to 70 years. Subjects were treated with either 10 μg relaxin/kg body weight/day (minimum of 36 subjects), 25 μg relaxin/kg body weight/day (minimum of 72 subjects), or placebo (minimum of 72 subjects) for 24 weeks. Administration was by continuous subcutaneous infusion, using a pump. The relaxin was recombinant human relaxin (rhRlx). At various time points, diastolic blood pressure, systolic blood pressure, and creatinine clearance (as a measure of renal function) were measured. Creatinine clearance was calculated using the following formulas:
# Creatinine clearance=((140−age)×weight (kg)/72×serum creatinine (mg/dL))×0.85
# Creatinine clearance=(140−age)×weight (kg)/72×serum creatinine (mg/dL)
# The change in each measured parameter was calculated (value at week x-week 0 value). […] The threshold for obtaining this effect was greater than 10 μg rhRLXN/kg/day. […] This latter result indicates an increase in blood flow.
# conscious male rats = experiment: 5-day rhRLX infusion in conscious male rats: MAP, renal function, hematocrit, plasma osmolality, sodium; format: in vivo, rat
# Protocol: After being placed in the experimental cage, a 100 μl blood sample was drawn from the arterial catheter into a heparinized tube for measurement of baseline plasma osmolality, sodium concentration and hematocrit prior to the administration of any fluids. […] Next, a bolus of inulin (IN, 0.2 ml of a 20% stock solution/100 g BW) and para-aminohippurate (PAH, 0.1 ml of a 2% working solution/100 g BW) was given over 1 minute into the venous catheter followed by a constant infusion of the two reagents at a rate of 0.5 mg/minute per 100 g BW and 0.1 mg/minute per 100 g BW, respectively. The flow rate was 19 μl/minute delivered by a Model 200 Syringe Pump (kd Scientific, Boston Mass.). Finally, the obturator in the bladder catheter was removed, and the latter was extended with a short piece of polyethylene tubing to facilitate the collection of urine.
# The technique of urine collection has proven to be reliable. Conrad and Colpoys (1986) J. Clin. Invest. 77:236-245; Danielson and Conrad (1995) J. Clin. Invest. 96:482-490; and Danielson and Conrad (1996) Circ. Res. 79:1161-1166. Indeed, after reaching steady-state in this study, the excretion rates of IN and PAH were 91±3 and 100±4% of their respective infusions. After measuring baseline mean arterial pressure and renal function, an osmotic minipump (model 2ML1, Alza Co., Palo Alto Calif.) containing either recombinant human relaxin (rhRLX; n=12 rats) or vehicle (n=7) was implanted subcutaneously on the back using light ether anesthesia. […] Five days later, mean arterial pressure (MAP), glomerular filtration rate (GFR), effective renal plasma flow (ERPF), and other parameters were again assessed as describe above. At this time, the excretion rates of IN and PAH were 91±3 and 98±2% of their respective infusion rates. At the end of the experiment, 1.0 ml of blood was collected for determination of serum rhRLX.
# Inulin concentration in plasma and urine was measured by the anthrone method, and PAH was determined by the method of Bratton and Marshall as modified by Smith. This method is described in Conrad (1984) Kidney Int. 26:24-29, and references cited therein. Plasma sodium was measured by a Kodak Ektachem Instrument (Rochester, N.Y.). Plasma osmolality was determined by freezing point depression (Advanced Osmometer, Model 3MO, Advanced Instruments, Needham Heights Mass.). All urine and plasma samples from MWRI were coded and sent to UNM for analysis of IN, PAH, sodium and osmolality (by L.A.D.). The rhRLX in serum was measured using a quantitative sandwich immunoassay, again in a blinded fashion. Danielson et al. (1999) J. Clin. Invest. 103:525-533.
# [1] = L-NAME 2 μg/minute i.v., 60 min
# [2] = L-NAME 2 μg/minute i.v., 120 min
# [3] = L-NAME 2 μg/minute i.v., 180 min
# [4] = L-NAME 2 μg/minute i.v., 240 min
substance,measurement,setting,value
"Porcine RLX: lyophilized, purified porcine relaxin (Sherwood and O'Byrne 1974), dissolved in Ringer's solution",ERPF,conscious rats; Baseline before L-NAME,10245
same,ERVR,conscious rats; Baseline before L-NAME,6.96
same,GFR,conscious rats; Baseline before L-NAME,3050
same,MAP (mean arterial pressure),conscious rats; Baseline before L-NAME,120
same,ERPF,conscious rats; [1],7520
same,ERVR,conscious rats; [1],11.00
same,GFR,conscious rats; [1],2776
same,MAP (mean arterial pressure),conscious rats; [1],135
same,ERPF,conscious rats; [2],7030
same,ERVR,conscious rats; [2],11.87
same,GFR,conscious rats; [2],2653
same,MAP (mean arterial pressure),conscious rats; [2],136
same,ERPF,conscious rats; [3],6530
same,ERVR,conscious rats; [3],12.92
same,GFR,conscious rats; [3],2498
same,MAP (mean arterial pressure),conscious rats; [3],136
same,ERPF,conscious rats; [4],5973
same,ERVR,conscious rats; [4],14.13
same,GFR,conscious rats; [4],2392
same,MAP (mean arterial pressure),conscious rats; [4],139
"rhRLX: recombinant human relaxin, identical in amino acid sequence to the product of the human H2 gene; A chain of 24, B chain of 29 amino acids","renal function, as measured by creatinine clearance",human subjects; 10 μg rhRLXN/kg/day (FIG. 12),improvement
same,"renal function, as measured by creatinine clearance",human subjects; 25 μg rhRLXN/kg/day (FIG. 13),improvement
same,diastolic pressure,"human subjects; 25 μg/kg/day s.c. infusion, about week 2 through week 24 (FIG. 10)",reduced
same,systolic pressure,"human subjects; 25 μg/kg/day s.c. infusion, about week 2 through week 24 (FIG. 11)",reduced
same,threshold for reducing diastolic and systolic pressure,"human subjects; human, in vivo",greater than 10 μg rhRLXN/kg/day
same,effect on ERPF,conscious male rats; 4 μg/hour for 5 days (FIG. 3),significantly increased
same,effect on ERVR,conscious male rats; 4 μg/hour for 5 days (FIG. 3),reducing
same,effect on GFR,conscious male rats; 4 μg/hour for 5 days (FIG. 3),significantly increased
same,effect on MAP,conscious male rats; 4 μg/hour for 5 days (FIG. 3),did not significantly affect
same,"HCT (hematocrit), change from the baseline",conscious male rats; rhRLX 4 μg/hour for 5 days,−5.0 ± 0.6 %
same,"PNa+ (plasma sodium concentration), change from the baseline",conscious male rats; rhRLX 4 μg/hour for 5 days,−5.3 ± 0.4 mEq/L
same,"Posm (plasma osmolality), change from the baseline",conscious male rats; rhRLX 4 μg/hour for 5 days,−10.9 ± 1.4 mOsm/kg H2O

# Source: patent publication US6723702B2, “Use of relaxin treat diseases related to vasoconstriction” (RAS Medical, Inc., priority 2000, dated 2004)
